“And” between values parts separate entries of the source, which are not always exact repeats. Equal entries are not always repeated.

Usually pKa stands for the pH at which an ionisable group is half protonated. Higher therefore signals a group that holds its proton tightly. Molecule `NC(=S)Nc1cccc([N+](=O)[O-])c1` had a pKa (acidic group) of 11.1.
`Cc1ccccc1O` registered a pKa (acidic group) of 10.2.
The same measure, in the same setting: then `COC(=O)c1cccc(NC=S)c1`, with 10.8.
Molecule `[NH3+]Cc1nc2ccccc2[nH]1` gave a pKa (basic group) of 3.28.
Take `Cc1cc(-c2ccc(N)c(C)c2)ccc1N`: the pKa (basic group) was found to be 4.64.
`[NH3+]C[C@H](O)C(=O)O` gave a pKa (acidic group) of 2.78.
As to `CCC(=O)OO`, the pKa (acidic group) amounted to 8.1.
Molecule `NCC=C(Cl)Cl` came in with a pKa (basic group) of 9.3.
Molecule `O=C(O)/C=C/C(=O)CC(=O)CC(=O)O` showed a pKa (acidic group) of 3.6.
`O=C(Nc1ccccc1)ONC(=O)c1ccccc1` gave a pKa (acidic group) of 6.4.
Still for that read-out and setting: then `C[C@@H]1C[C@@H]([C@H](O)CC2CC(=O)NC(=O)C2)C(=O)[C@@H](C)C1`, with 11.2; and `CSc1cccc(O)c1`, with 9.47.
For the molecule `O=c1[nH]c(=S)c2[nH]cnc2[nH]1`, the pKa reads like this: (acidic group) 6.2; (basic group) 0.9.
For the setting “acidic group”, `CN(C)C(=S)NCC(=O)O` yielded a pKa of 3.71.
Turning to `COc1ccc(C=O)cc1O`, the pKa (acidic group) came to 8.89.
Consider `CCN1CC(O[Si](C)(C)C)C1`, for which the pKa (basic group) is 8.68.
`S=C(S)N1CCCC1` had a pKa (acidic group) of 2.97.
For the molecule `O=[N+]([O-])c1ccc([O-])c(O)c1`, where the note is “acidic group”, the pKa was determined as 10.9.
Consider `O=C(O)c1cc([N+](=O)[O-])cs1`, for which the pKa (acidic group) turned out to be 2.83.
Same read-out and setting: the result for `CCOc1ccccc1/C=C/C(=O)O` reads 4.68.
Turning to `CN(C)c1ncnc2[nH]ncc12`, the pKa by setting is: (acidic group) 11; (basic group) 4.53.
In the case of `CC1=C(CC(C)NCC(O)c2ccc(F)cc2)CCC1(C)C` (centres undefined), the pKa (basic group) turned out to be 8.51.
`C[Se](C)=O` had a pKa (basic group) of 2.55.
`O=C(O)C[Se]c1ccc([N+](=O)[O-])cc1`: the pKa (acidic group) is 3.46.
Regarding `Cc1nnc(NS(=O)(=O)c2ccc(O)cc2)s1`, the pKa (acidic group) was 5.37.
`CC(=N\O)/C(CO)=N/[O-]` showed a pKa (acidic group) of 12.1.
As to `Cn1cnc2c([O-])ncnc21`, the pKa (basic group) was found to be 9.11.
Take `C/C=C/CC(=O)O`: under “acidic group”, the pKa came to 4.28.
For `Nc1nsc2ccccc12`, for the setting “basic group”, the pKa amounted to 2.45.
Still for that read-out and setting: the result for `CNCCC#N` reads 8.1.
As for `CNc1cc[nH+]c(S)n1`, the pKa (acidic group) was 3.09.
Regarding `CCCCCCCCCCNCc1ccc(C)cc1`, where the note is “basic group”, the pKa was found to be 9.48.
Same read-out and setting: the result for `CC1=Nc2ccccc2CO1` reads 4.64.
Take `Brc1cn[nH]c1`: the pKa (acidic group) was 12.7.
On the same count and under the same terms, then `CC1(C)NC(=S)NC1=O`, with 8.71.
For `O=C(O)[C@H]1CCCC[C@@H]1O`, the pKa (acidic group) was found to be 4.68.
For the setting “acidic group”, `Nc1ccc(S(=O)(=O)Nc2ccc(Br)nc2)cc1` registered a pKa of 7.12.
Turning to `C=C1[C@@H]2CC3C4N5C[C@]6(C)C[C@@H](OC(C)=O)[C@H](OC(C)=O)[C@]47C6[C@@H]5C[C@]3([C@H]1OC(C)=O)[C@@]7(O)C2`, the pKa (basic group) turned out to be 8.35.
Turning to `CN(C)CCC/N=C(\c1ccccc1)c1ccccc1-c1ccccc1`, the pKa (basic group) came to 9.2.
Still for that read-out and setting: the result for `CC(C)CCNCCC(C)C` reads 10.9.
As for `Nc1n[nH]c(N)c1/N=N/c1ccc(O)cc1`, the pKa (acidic group) amounted to 7.81 and the pKa (basic group) stood at 3.48.
In turn, `Cn1c[nH+]c2cccc(N)c21` registered a pKa (basic group) of 2.36.
Under “basic group”, `CCCC1N=C(N)N=C(Nc2ccc(SC)cc2)N1` (centres undefined) returned a pKa of 10.6.
Molecule `CN(c1ccccc1)C1CCCC1` registered a pKa (basic group) of 6.71.
Take `Cc1nc(NCc2ccco2)c2cn[nH]c2n1`: the pKa (basic group) stood at 4.65.
Still for that read-out and setting: the result for `CN(C)CCOC(C)(c1ccccc1)c1ccccc1` reads 8.75; that for `Cc1c[nH]cn1`, 7.51.
`CCCN(C)N(C)CCC` had a pKa (basic group) of 7.05.
Molecule `CCCCN(CC(C)O)CC(C)O` (centres undefined) showed a pKa (basic group) of 9.3.
For the setting “basic group”, `NNCCCc1ccccc1` gave a pKa of 7.2.
On to `NC(=O)NOCC(=O)O`, for which the pKa (acidic group) stood at 2.6.
Take `Cc1cnc2c(c1)cc(C)c1cc(C)cnc12`: the pKa (basic group) is 5.27.
Take `Oc1cc[nH+]nc1`: under “acidic group”, the pKa worked out at 1.07.
Still for that read-out and setting: the result for `CCN(CC)C(=S)NC(=O)c1ccc(Cl)cc1` reads 8.
On the same count and under the same terms, then `Cc1ccc(O)cc1[S+](C)C`, with 8.01.
Take `CS(=O)C(C)(C)C` (centres undefined): where the note is “basic group”, the pKa is -1.71.
For `C=C(C)[C@H]1CN[C@H](C(=O)[O-])[C@H]1CC(=O)OC`, the pKa (basic group) is 9.52.
For `CC/C=C/Cc1nc(C(=O)[O-])cn1[C@H](C(=O)[O-])C(C)(C)S`, the pKa reads like this: (acidic group) 10.2; (basic group) 6.4.
`Cc1cnc2c(c1)c(C)c(C)c1cccnc12` displayed a pKa (basic group) of 5.34.
`CCOc1cccc[n+]1O` yielded a pKa (acidic group) of 1.18.
The same measure, in the same setting: the result for `Cn1cnc2c(O)[nH+]cnc21` reads 1.86.
The same measure, in the same setting: then `CC(=O)[n+]1cccc(C)c1`, with 5.81.
With `Nc1ccc2nc(/C=C/c3ccccc3)ccc2c1`, the pKa (basic group) stood at 5.5.
Consider `[O-]/N=C1\CCCC\C1=N/O`, for which the pKa (acidic group) amounted to 12.6.
In the case of `[NH3+]CCC(=O)NCCc1c[nH]cn1`, under “basic group”, the pKa was 6.84.
Still for that read-out and setting: then `O=C([O-])[C@@H]1O[C@H](Oc2ccc3ncccc3c2)[C@@H](O)[C@H](O)[C@H]1O`, with 5; and `Cc1cnc2c(ccc3cccnc32)c1C`, with 5.62; and `Nc1ccc(Cl)c2ccccc12`, with 3.4.
Take `CN(C)C`: for the setting “basic group”, the pKa was determined as 9.96.
`O=[N+]([O-])c1cccc(S)c1` came in with a pKa (acidic group) of 5.24.
With `Cc1nccc2c1[nH]c1cc(O)ccc12`, the pKa was found to be 9.47 (acidic group) and 7.39 (basic group).
`Cc1nc2ccccc2[nH]1` yielded a pKa (basic group) of 6.3.
As for `O=[N+]([O-])c1cc2cc(O)ccc2cc1Cl`, under “acidic group”, the pKa amounted to 8.56.
The molecule `C[NH+](C)Cc1cc(-c2ccccc2)cc(C[NH+](C)C)c1O` displayed a pKa (acidic group) of 5.65.
`O=C([O-])c1cc(-c2ccccc2)nnc1NCC[NH+]1CCOCC1` returned a pKa (basic group) of 3.33.
Under “acidic group”, `Sc1nnco1` came in with a pKa of 3.85.
As for `CN(C)Cc1cc(CC(C)(C)C)ccc1O`, the pKa (acidic group) was found to be 11.5.
As for `CCN(CC)CCNc1nc(C)cc(Nc2ccc(Cl)cc2)n1`, the pKa (basic group) amounted to 9.6.
Turning to `CCC[NH2+]C(C)C(=O)O` (centres undefined), the pKa (acidic group) worked out at 2.21.
Still for that read-out and setting: the result for `Oc1cc(-c2ccccc2)n[nH]1` reads 11.4; that for `COc1ccc(O)cc1[N+](=O)[O-]`, 8.68; that for `CC(C)C[C@H](N)C(N)=O`, 7.84.
`O=C(O)C12CCC(O)(CC1)CC2` displayed a pKa (acidic group) of 6.33.
Turning to `CN(C)CCOCCN(C)C`, the pKa (basic group) was 9.8.
`c1nc(NC2CCCCC2)c2ncn(C3CCCCC3)c2n1` displayed a pKa (basic group) of 4.4.
On the same count and under the same terms, then `Cn1ccc(=S)c2ccccc21`, with 0.56.
Regarding `ONc1ccccc1`, the pKa (acidic group) was 10.7 and the pKa (basic group) was -0.32.
For `COc1cc2c(cc1OC)C(=O)Cc1ccc3c(c1CN(C)CC2)OCO3`, the pKa (basic group) worked out at 8.09.
On to `O/N=C1\CCCC\C1=N/O`, for which the pKa (acidic group) is 10.5.
Same read-out and setting: the result for `O=C([O-])[C@@H](NCC[NH2+][C@@H](C(=O)[O-])c1ccccc1[O-])c1ccccc1O` reads 10.8; that for `CC[NH+]1CCC[C@@H]1CNC(=O)c1c(O)cccc1OC`, 8.7.
Molecule `CC(C)(C)NNC(C)(C)C` came in with a pKa (basic group) of 8.31.
Still for that read-out and setting: the result for `c1cnc2c(c1)ccc1c3c(cnc12)CCCC3` reads 5.66.
For `Cc1ccc2c(c1)cc(C)n2C`, the pKa (basic group) stood at 0.5.
For `Cc1cc(/N=N/c2ccc(S(N)(=O)=O)cc2)cc(C(=O)O)c1O`, under “acidic group”, the pKa was 2.25.
For the molecule `Cc1nc2[nH]c(=O)[nH]c(=O)c2[nH]1`, the pKa (basic group) stood at 3.1.
On the same count and under the same terms, then `CC(=O)n1ccnc1Cc1ncc[nH]1`, with 6.6.
Regarding `Nc1cccc(O)c1`, the pKa was found to be 9.85 (acidic group) and 4.29 (basic group).
`Cc1cc(C)nc(N)n1` gave a pKa (basic group) of 4.93.
With `C=CCN(C)C`, the pKa (basic group) is 8.72.
Same read-out and setting: then `C=CCNCC=C`, with 9.35.
For `O/N=C1/CCCC(=N\O)/C1=N/O`, under “acidic group”, the pKa is 8.21 and 8.12.
Take `Nc1nc(N)c2[nH]cnc2n1`: the pKa by setting is: (acidic group) 10.8; (basic group) 5.05.
Where the note is “basic group”, `Cn1c(=O)cnc2ccccc21` had a pKa of -1.15.
The same measure, in the same setting: then `c1ccc2ncncc2c1`, with 3.51; and `OCCCCCc1ccncc1`, with 6.04.
In turn, `CN(C)c1cccc(/C(=N\O)C(F)(F)F)c1` returned a pKa (acidic group) of 9.3.
The same measure, in the same setting: then `Cc1cc([N+](=O)[O-])cc(C)c1O`, with 7.22.
`CN(C)c1ccc2cc3c(ccc4ccccc43)nc2c1` returned a pKa (basic group) of 7.31.
Still for that read-out and setting: the result for `c1ncc(Cc2c[nH+]c[nH]2)[nH]1` reads 5.69.
Still for that read-out and setting: then `Clc1ccnc2c1ccc1c(Cl)ccnc12`, with 3.03; and `NCCCc1ccccc1O`, with 9.51.
`[NH3+]C/C=C\C(=O)O` came in with a pKa (acidic group) of 3.53.
For `[NH3+][C@@H](CCC(=O)O)C(=O)O`, where the note is “acidic group”, the pKa is 2.08.
Molecule `O=C(O)CCC(=O)c1ccc2ccccc2c1` showed a pKa (acidic group) of 4.96.
`Nc1ccc(S(=O)(=O)Nc2ccccn2)cc1`: the pKa (acidic group) was determined as 8.51 and the pKa (basic group) turned out to be 2.58.
Turning to `C[NH2+]CCNCCN`, the pKa (basic group) is 9.57.
For `CC(C)(C)c1cc(/C=C/C(=O)[O-])cc(C(C)(C)C)c1O`, the pKa (acidic group) stood at 11.1.
Consider `Cn1ccnc1CS`, for which the pKa by setting is: (acidic group) 8.88; (basic group) 6.31.
For `C[NH+]1CSC[C@H]1C(=O)O`, the pKa (acidic group) came to 1.51.
With `CN1[C@@H](CC(=O)c2ccccc2)CCC[C@H]1C[C@@H](O)c1ccccc1`, under “basic group”, the pKa is 8.
In turn, `[NH3+][C@H]1CC[C@H](C(=O)O)CC1` displayed a pKa (acidic group) of 3.92.
Take `CC(=O)C(C=O)C(C)=O`: the pKa (acidic group) was determined as 4.6.
On the same count and under the same terms, the result for `C[NH+]1C[C@H](C(=O)O)C[C@@]2(O)c3cccc4[nH]cc(c34)C[C@@H]12` reads 3.42; that for `Cc1ccc(N[N+](=O)[O-])cc1`, 4.88.
For `CC(C)[C@H]1CC[C@H](C)C[C@@H]1N`, the pKa (basic group) worked out at 10.6.
Regarding `CCCNCCNCCC`, the pKa (basic group) came to 10.3.
Molecule `CC[NH+](CC)CC(=O)O` had a pKa (acidic group) of 1.98.
In the case of `O=C(O)C=C=Cc1ccccc1`, the pKa (acidic group) was found to be 3.7.
On the same count and under the same terms, then `COCC(=O)NN`, with 12.1.
Regarding `Nc1cccc2ncccc12`, the pKa (basic group) came to 5.46.
For the setting “acidic group”, `O=S1(=O)N=CNc2nc[nH]c21` yielded a pKa of 5.59.
Regarding `CC(O)CN(Cc1ccccc1)CC(C)O` (centres undefined), the pKa (basic group) was found to be 7.5.
Still for that read-out and setting: the result for `O=C([O-])c1cccc2cc3ccccc3nc12` reads 7.72.

The record behind these values is the pKa sets of Baltruschat and Czodrowski (2020).
